Results published in US9175013B2, “Fused aminodihydrothiazine derivatives” (Eisai R&D Management Co., Ltd., priority 2011, dated 2015).
Where two headings read alike, the source gives them in different places.

Legend:
[1] = Human liver microsomal stability assay; type: in vitro ADME; conditions: 0.1 μmol/L compound, 30 min, 37° C., NADPH generating system
Description: Human Liver Microsomal Stability Assay The compound was dissolved in DMSO to prepare 1 mmol/L DMSO solution. The DMSO solution was diluted with distilled water to prepare 1 μmol/L compound dosing solution (DMSO conc.: 0.1%). 105 μL of reaction buffer (1 mol/L phosphate buffer (pH 7.4)/1 mmol/L EDTA (pH 7.4)/distilled water=1/1/5, v/v/v), 15 μL of 1 μmol/L compound dosing solution, and 15 μL of rat or human liver microsomes (5 mg/mL) were mixed, and preincubated for 5 min at 37° C. Metabolic reaction was initiated by adding 15 μL of NADPH generating system (3.3 mmol/L β-NADPH+, 80 mmol/L glucose 6-phosphate, 1 unit/mL glucose 6-phosphate dehydrogenase, 60 mmol/L MgCl2). For the control sample, NADPH generating system was replaced with 60 mmol/L MgCl2. The 150 μL of reaction mixture (final compound conc.: 0.1 μmol/L, final DMSO conc.: 0.01%) was incubated for 30 min at 37° C., and the reaction was terminated by adding 150 μL of methanol/acetonitrile solution containing an appropriate internal standard compound. The sample was vortexed and centrifuged, and obtained supernatant was subject to LC/MS analysis.

[2] = test system: Aβ peptide production in rat primary neuronal culture; test: In vitro cellular assay: quantification of Aβ peptide in culture of neurons from rat fetus brain; type: cell-based, Wistar rat; conditions: Primary cortical neuron
Description: Quantification of Aβ Peptide in Culture of Neurons from Rat Fetus Brain
Primary neuronal cultures were prepared from the cerebral cortex of embryonic day 18 Wistar rats (Charles River, UK). Specifically, the embryos were aseptically removed from pregnant rats under ether anesthesia. The brain was isolated from the embryo and immersed in HBSS (Sigma Aldrich #H9269) containing 10 mM HEPES (Gibco #15630-056). The cerebral cortex was collected from the isolated brain under a stereoscopic microscope. The cerebral cortex fragments collected were enzymatically treated in an enzyme solution containing 0.05% trypsin-EDTA solution (GIBCO, #25300) at 37° C. for 20 minutes to disperse the cells. The cells were then washed twice and then gently resuspended in Neurobasal medium (Gibco #21103) supplemented with 2% B27 supplement (GIBCO #17504-044), 0.5 mM L-glutamine (GIBCO #25030), 1×N2 (GIBCO #17502-048), 100 μg/ml Pen/Strep (GIBCO 15140-122) and 5% heat inactivated FCS (PAA #A15-701). The cell dispersion was filtered through a 40-μm nylon mesh (BD Falcon #352340) to remove the remaining cell mass, and thus a neuronal cell suspension was obtained. The neuronal cell suspension was diluted with the medium above and then plated in a volume of 100 μL/well at an initial cell density of 3.25×10^5 cells/ml in poly-D-lysine coated 96-well culture plate (Greiner #655940). The plated cells were cultured in the culture plate at 37° C. in 5% CO2-95% air for 24 hrs. The total amount of the medium was replaced with ‘assay Neurobasal medium’ (as above excluding heat inactivated FCS), and then the cells were cultured for a further five days.
The drug was added to the culture plate on Day 6 of culture as follows. 8 point compound serial dilutions were generated in DMSO at a concentration of ×1000 that of the final assay concentration (FAC). Compound solutions were then prepared by adding 999 ul of ‘Assay Neurobasal media’ (as described in above section) to 1 ul of DMSO compound stock. The total amount of the medium was removed from each of the cell plate wells, and […] of ‘Assay Neurobasal media’ was added followed by […] of compound solution. The final DMSO concentration was 0.1%. […]
Cell survival was evaluated using an Alamar assay according to the following procedure. […]
Measurement of fluorescence intensity for each well was the carried out at 540/590 nm using a Pherastar plus plate reader (BMG labtech). […]
Human/Rat β Amyloid (42) ELISA Kit Wako (#290-62601) and Human/Rat P Amyloid (40) ELISA Kit Wako (#294-62501) from Wako Pure Chemical Industries, Ltd. were used for Aβ ELISA. […] The results were shown as percentage of the control groups and IC50 values for each compound were determined using four parameter logistic fit model using the XLFIT5 software package (IDBS).

[3] = Aβ ELISA, rat primary cortical neurons, Aβ species (x-40 or x-42) not given, read-out: IC50

For `COc1cnc(C(=O)Nc2ccc(F)c([C@]34CO[C@H](C(F)F)[C@H]3CSC(N)=N4)c2)cn1` [Example 3, N-(3-((4aS,5S,7aS)-2-amino-5-(difluoromethyl)-4a,5,7,7a-tetrahydro-4H-furo[3,4-d][1,3]thiazin-7a-yl)-4-fluorophenyl)-5-methoxypyrazine-2-carboxamide], which “HLM stability: percentage of parent remaining upon 30 minute incubation with human liver microsomes” value [1] is on record?
The value was 73.3%.

And the IC50 [2, 3]?
The IC50 was 4 nM.

What does the source list for `COc1cnc(C(=O)Nc2ccc(F)c([C@]34CO[C@H](CF)[C@H]3CSC(N)=N4)c2)cn1` [Example 2, N-(3-((4aS,5S,7aS)-2-amino-5-(fluoromethyl)-4a,5,7,7a-tetrahydro-4H-furo[3,4-d][1,3]thiazin-7a-yl)-4-fluorophenyl)-5-methoxypyrazine-2-carboxamide]?
HLM stability: percentage of parent remaining upon 30 minute incubation with human liver microsomes [1]: 82.0%; IC50 ([2]; Rattus norvegicus): 4 nM

Which results are given for `COc1cnc(C(=O)Nc2cc(F)c(F)c([C@]34CO[C@H](CF)[C@H]3CSC(N)=N4)c2)cn1` [Example 4, N-(3-((4aS,5S,7aS)-2-amino-5-(fluoromethyl)-4a,5,7,7a-tetrahydro-4H-furo[3,4-d][1,3]thiazin-7a-yl)-4,5-difluorophenyl)-5-methoxypyrazine-2-carboxamide]?
HLM stability: percentage of parent remaining upon 30 minute incubation with human liver microsomes [1]: 78.6%; IC50 [2, 3]: 12 nM
